From patent US9051325B2, “Bicyclic [5,6] imidazo pyrimodone compounds for use in the treatment of diseases or conditions mediated by Lp-PLA2” (GlaxoSmithKline Intellectual Property Development Limited, priority 2013, dated 2015) come the findings set out here.

Experiment [1] relates to proinflammatory (M1) and anti-inflammatory (M2) markers in macrophages. The experiment in a line: Ex vivo analysis of M1 and M2 markers in macrophages of EAE rats by realtime PCR. Also noted: species or system rat. Particulars: splenic and CNS infiltrating macrophages of EAE rats. As to the method: Ex vivo analysis of proinflammatory (M1) and anti-inflammatory (M2) markers in control and compound treated EAE rats. Splenic macrophages were harvested at day 13 post MBP-immunization and assayed for expression of a variety of markers by realtime PCR. CNS infiltrating cells were harvested and macrophages were analyzed for expression of M1 and M2 markers by realtime PCR.

Experiment [2] deals with rat EAE model. Briefly: Rat experimental autoimmune encephalomyelitis (EAE) model, preventive treatment. The experiment is classed as in vivo. As to the method: A further study was carried out to study the impact of Lp-PLA2 inhibitors on modulating M1/M2 imbalance. In this study, rats were induced to develop experimental autoimmune encephalomyelitis (EAE) by immunization with myelin basic protein (MBP) antigen and treated with a known Lp-PLA2 inhibitor: 5-((9-Methoxy-4-oxo-6,7-dihydro-4H-pyrimido[6,1-a]isoquinolin-2-yl)oxy)-2-(3-(trifluoromethyl)phenoxy)benzonitrile (See PCT application no. PCT/CN2011/001597). In this preventive treatment model, the compound was administered at day 0 (day of immunization) and continued to administer until day 22. The study lasted for 25 days. Rats were subsequently monitored for symptoms of EAE. Rats were immunized with MBP to develop EAE and symptoms were monitored daily. Plasma Lp-PLA2 activity, OxLDL, and LysoPC concentration were determined at different time points through the course of EAE.

Experiment [3] addresses T1, Lp-PLA2 in human plasma (Homo sapiens, UniProt Q13093).
T1 construct: from tissue; host or cells: pooled human plasma
T1 sequence (Q13093 22-441): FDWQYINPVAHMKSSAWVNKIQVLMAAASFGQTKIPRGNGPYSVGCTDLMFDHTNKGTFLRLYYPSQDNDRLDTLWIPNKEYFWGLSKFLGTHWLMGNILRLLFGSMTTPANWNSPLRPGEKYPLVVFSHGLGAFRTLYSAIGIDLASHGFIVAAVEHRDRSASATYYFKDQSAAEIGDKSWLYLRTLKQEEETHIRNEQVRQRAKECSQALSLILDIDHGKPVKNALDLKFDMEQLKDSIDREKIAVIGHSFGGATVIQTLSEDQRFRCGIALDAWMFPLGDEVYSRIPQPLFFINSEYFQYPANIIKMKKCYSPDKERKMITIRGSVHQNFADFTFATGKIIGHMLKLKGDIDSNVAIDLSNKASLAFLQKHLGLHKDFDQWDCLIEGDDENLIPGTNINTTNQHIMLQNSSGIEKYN
The experiment in a line: Lp-PLA2 human plasma assay (Thio-PAF assay). Format: biochemical. Particulars: pooled human plasma; lower bounds; read-out: pIC50 values in the thio-PAF assay (converted). In a few lines: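 Pooled human plasma preincubated 30 min with compounds, then given 2-thio-PAF substrate with CPM and NEM in 50 mM HEPES pH 7.4, 150 mM NaCl, 1 mM CHAPS. Reaction quenched after 2 min with TFA and read by fluorescence (ex 380/em 485) after 40 min at room temperature; pIC50 from curve fit.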

The target in experiment [4] is T2, recombinant human Lp-PLA2 (Homo sapiens, UniProt Q13093).
T2 sequence (Q13093 22-441): T1 sequence (Q13093 22-441)
Briefly: Recombinant human Lp-PLA2 assay (rhLp-PLA2, PED6 assay). Format: biochemical. In a few lines:
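Compounds were preincubated 30 min with 4 nM […] rhLp-PLA2 in 50 mM HEPES pH 7.4, 150 mM NaCl, 1 mM CHAPS, then PED6 substrate […] was added for 20 min at room temperature in the dark. Fluorescence was read at ex 480/em 540, and pIC50 was fitted from 1:3 serial dilutions.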

[5] abbreviates: lower bounds, read-out: pIC50 values in the PED6 assay (converted).
[6] abbreviates: read-out: rhLp-PLA2 (PED6 assay) (pIC50) (converted).

Read-outs that look alike come from different tables or passages of the source.

On to `COc1ccc2c(c1)CCn1c-2cc(Oc2ccc(Oc3cccc(C(F)(F)F)c3)c(C#N)c2)nc1=O` [5-((9-Methoxy-4-oxo-6,7-dihydro-4H-pyrimido[6,1-a]isoquinolin-2-yl)oxy)-2-(3-(trifluoromethyl)phenoxy)benzonitrile], for which, in experiment [1], the M1 markers entry is recorded as “decrease” and the M2 markers entry is “increase”. Moreover, in experiment [2] (rat EAE plasma), the “Lp-PLA2 activity in rat EAE plasma” value is reported as “decreased” and the “LysoPC levels in rat EAE plasma” value is on record as “decreased”. Besides, the clinical disease result in experiment [2] (rat EAE, MBP immunization, administered day 0 to day 22) is given as “reduction in clinical disease”.

With `C[C@@H]1Cn2c(cc(OCc3cc(F)c(F)c(F)c3)nc2=O)N1C` [Example E48, (R)-1,2-dimethyl-7-((3,4,5-trifluorobenzyl)oxy)-2,3-dihydroimidazo[1,2-c]pyrimidin-5(1H)-one], the IC50 in experiment [3] was at most 100 nM; in experiment [4] (setting [5]), at most 10 nM.

Turning to `C[C@H]1Cn2c(cc(OCc3ccc(Oc4cncc(Cl)c4)c(F)c3)nc2=O)N1C` [Example E23, (S)-7-((4-((5-chloropyridin-3-yl)oxy)-3-fluorobenzyl)oxy)-1,2-dimethyl-2,3-dihydroimidazo[1,2-c]pyrimidin-5(1H)-one], the results for the IC50 in experiment [3], in experiment [4] (setting [5]) and in experiment [4] (setting [6]) were at most 100 nM, at most 1 nM and 0.158 nM, respectively.

Turning to `C[C@@H]1Cn2c(cc(OCc3ccc(F)c(C#N)c3)nc2=O)N1C` [Example E53, (R)-5-(((1,2-dimethyl-5-oxo-1,2,3,5-tetrahydroimidazo[1,2-c]pyrimidin-7-yl)oxy)methyl)-2-fluorobenzonitrile], the figures for the IC50 in experiment [3] and in experiment [4] (setting [5]) were at most 100 nM and at most 10 nM, respectively.

For the compound `[2H]C([2H])(Oc1cc2n(c(=O)n1)CC(C)(C)N2C([2H])([2H])[2H])c1cccc(F)c1F` [Example E15, 7-(dideutero(2,3-difluorobenzyl)oxy)-1-trideuteromethyl-2,2-dimethyl-2,3-dihydroimidazo[1,2-c]pyrimidin-5(1H)-one], the IC50 is at most 100 nM in experiment [3] and at most 10 nM in experiment [4] (setting [5]).

With `[2H]C([2H])([2H])N1c2cc(OCc3cccc(F)c3F)nc(=O)n2CC1(C)C` [Example E104, 7-((2,3-difluorobenzyl)oxy)-1-trideuteromethyl-2,2-dimethyl-2,3-dihydroimidazo[1,2-c]pyrimidin-5(1H)-one], the IC50 in experiment [3] is at most 100 nM; in experiment [4] (setting [5]), at most 10 nM.

With `CCN1c2cc(OCc3cc(F)cc(F)c3)nc(=O)n2CC1(C)C` [Example E129, 7-((3,5-difluorobenzyl)oxy)-1-ethyl-2,2-dimethyl-2,3-dihydroimidazo[1,2-c]pyrimidin-5(1H)-one], the IC50 was at most 100 nM in experiment [3] and at most 10 nM in experiment [4] (setting [5]).

In the case of `CC1(C)Cn2c(cc(OCc3ccc(Oc4cnc(C(F)(F)F)nc4)c(F)c3)nc2=O)N1` [Example E101, 7-((3-fluoro-4-((2-(trifluoromethyl)pyrimidin-5-yl)oxy)benzyl)oxy)-2,2-dimethyl-2,3-dihydroimidazo[1,2-c]pyrimidin-5(1H)-one], the IC50 in experiment [3] is at most 100 nM; in experiment [4] (setting [5]), at most 1 nM.

As for `CN1c2cc(OCc3ccc(Oc4ccnc(C(F)(F)F)c4)c(F)c3)nc(=O)n2CC1(C)C` [Example E59, 7-((3-fluoro-4-((2-(trifluoromethyl)pyridin-4-yl)oxy)benzyl)oxy)-1,2,2-trimethyl-2,3-dihydroimidazo[1,2-c]pyrimidin-5(1H)-one], the IC50 in experiment [3] was at most 100 nM; in experiment [4] (setting [5]), at most 1 nM; in experiment [4] (setting [6]), 0.0398 nM.
